Consider one compound from patent US7776844B2, “N-(phosphonoalkyl)-amino acids, derivatives thereof and compositions and methods of use” (priority 2006, dated 2010).

Like-named read-outs stand apart in the source and are kept apart here.

In assay [1] the test system is X-linked ichthyosis with severe dry skin. The experiment in a line: Topical treatment of X-linked ichthyosis / severe dry skin, clinical evaluation. The class given is in vivo. The following applies: Homo sapiens, read-out: improvement in contrast to untreated or vehicle control, clinical evaluation. From the text:
For example, human subjects having severe dry skin or ichthyosis, topically applied 1%-5% N-(phosphonomethyl)-glycine creams to lesions for 2 to 3 weeks. After 2 to 3 weeks of topical application, the thick and scaly skin disappeared and the skin became smooth and normal in appearance. Clinical evaluation was judged to be 90% to 100% improvement compared to the untreated condition or when using a vehicle control.
(§1) The present invention will now be described in more detail with reference to the following non-limiting examples. In the initial tests for comparative studies, a control vehicle was always included. It was discovered that all the vehicle controls gave the same results as that of the untreated skin sites; no detectable effects of the controls have been found as judged by clinical evaluation.
(§2) For subjective disorders such as pain, itch or the like, the therapeutic effects were evaluated or judged by the subjects or patients; for example, if the pain or itch had disappeared within hours or days. For other detectable symptoms or syndromes, the therapeutic effects or improvements were evaluated or judged by medical professionals.
N-(phosphonomethyl)-glycine (5 g) was suspended in water (30 ml) and propylene glycol (10 ml), and concentrated ammonium hydroxide (2 ml) was added with stirring. The suspension became a clear solution, and was mixed with hydrophilic ointment (oil-in-water emulsion, 53 g). The white cream thus formulated had pH 3.8 and contained 5% N-(phosphonomethyl)-glycine. A subject who had X-linked ichthyosis with severe dry skin, having thick and rough skin with adherent scales, topically applied the above 5% N-(phosphonomethyl)-glycine cream to an involved skin site twice daily for two weeks. After one week of topical application, the adherent scales disappeared, and the skin became smooth and had 50% improvement in contrast to the untreated or vehicle control as judged by clinical evaluation. After two weeks of topical application, the treated skin became normal in appearance, and had 100% improvement in contrast to the untreated or vehicle control as judged by clinical evaluation.
A subject who had X-linked ichthyosis with severe dry skin, having thick and rough skin with adherent scales, topically applied the above 5% N-(phosphonomethyl)imino-diacetic acid cream to an involved skin site twice daily for two weeks. After one week of topical application, most adherent scales disappeared and the skin had 50% improvement in contrast to the untreated or vehicle control as judged by clinical evaluation. After two weeks of topical application, the scales disappeared completely and the treated skin became smooth, and had 90% improvement in contrast to the untreated or vehicle control as judged by clinical evaluation.
A subject who had X-linked ichthyosis with severe dry skin, having thick and rough skin with adherent scales, topically applied the above 5% N-(phosphonomethyl)-L-tyrosine cream to an involved skin site twice daily for 12 days. After 12 days of topical application, most adherent scales disappeared and the skin became smooth, and had 75% improvement in contrast to the untreated or vehicle control as judged by clinical evaluation.
A subject who had X-linked ichthyosis having thick and rough skin with adherent scales, topically applied the 5% N-(phosphonomethyl)-DL-asparagine cream to an involved skin site twice daily for three weeks. After one week of topical application, most adherent scales disappeared and the treated site appeared smooth. The skin had 75% improvement in contrast to the untreated or vehicle control as judged by clinical evaluation. After three weeks of topical application, the scales disappeared completely and the treated site felt smooth and normal in appearance. The skin had 100% improvement in contrast to the untreated or vehicle control as judged by clinical evaluation. […]

For another assay, the system named is chronic plaque psoriasis. The experiment in a line: Topical treatment of chronic plaque psoriasis lesion, clinical evaluation. The conditions noted are these: Homo sapiens, 336 h, read-out: improvement in contrast to untreated or vehicle control, clinical evaluation. The class given is in vivo. How it is done: as §1, §2
A subject had chronic plaque psoriasis with erythema, moderately thick and silvery scales. The subject topically applied twice daily the above white cream containing 5% N-(phosphonomethyl)-glycine ethyl ester to one psoriatic lesion for two weeks. At the end of two weeks, the erythema and silvery scales improved substantially, and the treated skin had 50% improvement in contrast to the untreated or vehicle control as judged by clinical evaluation.
A subject had chronic plaque psoriasis with erythema, moderately thick and silvery scales. The subject topically applied twice daily the above white cream containing 10% N-(phosphonomethyl)-L-proline to one psoriatic lesion for two weeks. At the end of two weeks, the erythema and silvery scales improved very substantially, and the treated skin had 75% improvement in contrast to the untreated or vehicle control as judged by clinical evaluation.
A subject had chronic plaque psoriasis with erythema, moderately thick and silvery scales. The subject topically applied twice daily the above white cream containing 5% N-(phosphonomethyl)-glycine propyl ester to one psoriatic lesion for two weeks. At the end of two weeks, the erythema and silvery scales improved very substantially, and the treated skin had 75% improvement in contrast to the untreated or vehicle control as judged by clinical evaluation.
A subject had chronic plaque psoriasis with erythema, moderately thick and silvery scales. The subject topically applied twice daily the above white cream containing 5% N-(phosphonomethyl)-glycine isopropyl ester to one psoriatic lesion for a week. At the end of one week, the erythema and silvery scales improved substantially, and the treated skin had 50% improvement in contrast to the untreated or vehicle control as judged by clinical evaluation.
A subject had chronic plaque psoriasis with erythema, moderately thick and silvery scales. The subject topically applied twice daily the above white cream containing 8% N-(phosphonomethyl)-glycinamide to one psoriatic lesion for three weeks. At the end of three weeks, the erythema and silvery scales disappeared almost completely, and the treated skin had 90% improvement in contrast to the untreated or vehicle control as judged by clinical evaluation.
A subject had chronic plaque psoriasis with erythema, moderately thick and silvery scales. The subject topically applied twice daily the above white cream containing 5% N-(phosphonomethyl)-L-tyrosine ethyl ester to one psoriatic lesion for two weeks. At the end of two weeks, the erythema and silvery scales improved noticeably and the treated skin had 25% improvement in contrast to the untreated or vehicle control as judged by clinical evaluation.
A subject had chronic plaque psoriasis with erythema, moderately thick and silvery scales. The subject topically applied twice daily the above white cream containing 10% N-(phosphonomethyl)-D-4-hydroxyphenylglycine to one psoriatic lesion for two weeks. […]

The test system of another assay is hyperpigmented dark skin. The assay can be described thus: Topical skin lightening of hyperpigmented dark skin, clinical evaluation. The class given is in vivo, human. The conditions noted are these: 5% solution once every other day with occlusion. How it is done: as §1, §2
A subject who had hyperpigmented dark skin, topically applied 5% N-(phosphonomethyl)-DL-asparagine cream prepared according to Example 7 to an involved skin site twice daily for four weeks. […] The treated site was 25% lighter in skin color in contrast to the untreated or vehicle control as judged by clinical evaluation. After four weeks of topical application, the treated site had substantial reduction in skin pigmentation. The treated site was 50% lighter in contrast to the untreated or vehicle control in skin color as judged by clinical evaluation.
A subject who had hyperpigmented dark skin, topically applied the above 5% N-(phosphonomethyl)-DL-asparagine solution to an involved skin site once every other day with occlusion for ten days. […] The treated site was 25% lighter in skin color as judged by clinical evaluation. After ten days of topical application, the treated site had substantial reduction in skin pigmentation. The treated site was 50% lighter in skin color in contrast to the untreated or vehicle control as judged by clinical evaluation.
A subject who had hyperpigmented dark skin, topically applied the above 5% N-(phosphonomethyl)-creatine solution to an involved skin site once every other day with occlusion for two weeks. […] The treated site was 25% lighter in skin color in contrast to the untreated or vehicle control as judged by clinical evaluation. After two weeks of topical application, the treated site had very substantial reduction in skin pigmentation. The treated site was 75% lighter in skin color in contrast to the untreated or vehicle control as judged by clinical evaluation.
A subject who had hyperpigmented dark skin, topically applied the above 5% N-(phosphonomethyl)-glycinamide solution to an involved skin site once every other day with occlusion for two weeks. […] The treated site was 25% lighter in skin color in contrast to the untreated or vehicle control as judged by clinical evaluation. After two weeks of topical application, the treated site had substantial reduction in skin pigmentation. The treated site was 50% lighter in skin color in contrast to the untreated or vehicle control as judged by clinical evaluation.
A subject who had hyperpigmented dark skin, topically applied the above 5% N-(phosphonomethyl)-L-glutamine solution to an involved skin site once every other day with occlusion for two weeks. After two weeks of topical application, the treated site had substantial reduction in skin pigmentation. The treated site had 50% lighter in skin color in contrast to the untreated or vehicle control as judged by clinical evaluation.

The next assay has as its system itchy eczema. The experiment in a line: Topical relief of itch in itchy eczema, judged by subject. The class given is in vivo, human. The following applies: 7% cream. How it is done: as §1, §2
A subject, having itchy eczema on their right thigh, topically applied the above 8% N-(phosphonomethyl)-L-proline ethyl ester cream. […] Therapeutic evaluation was judged to be 100% effective in contrast to the untreated or vehicle control for immediate relief of itch.
A subject, having itchy eczema on their left leg, topically applied 7% N-(phosphonomethyl)-creatine cream prepared according to Example 17. […] Therapeutic evaluation was judged to be 100% effective in contrast to the untreated or vehicle control for immediate relief of itch.
A subject, having itchy eczema on their left thigh, topically applied the above 10% N-(phosphonomethyl)-glutamine. […] Therapeutic evaluation was judged to be 100% effective in contrast to the untreated or vehicle control for immediate relief of itch.

Take `CN(CC(=O)O)C(=N)NCP(=O)(O)O` [N-(phosphonomethyl)-creatine]: the inhibition in vivo at 5 % in assay [1] (240 h) is 50%; in assay [1] (336 h), 100%; with chronic plaque psoriasis, 50%. Also, the results for the “treated site lighter in skin color, clinical evaluation” value in the assay on hyperpigmented dark skin (after seven days) and with hyperpigmented dark skin (after two weeks) were 25% and 75%, respectively. For the same compound, the “time the treated skin did not itch after application” value in the assay on itchy eczema was 8 h. Also, the “time until itch disappeared after topical application” value in the assay with itchy eczema is “within a few minutes”. In addition, the “therapeutic evaluation, effective for immediate relief of itch” value in the assay on itchy eczema (single topical application) came to 100%.
